Assay [1] addresses T1, Polyunsaturated fatty acid 5-lipoxygenase (Homo sapiens, UniProt P09917).
T1 sequence (P09917 whole entry): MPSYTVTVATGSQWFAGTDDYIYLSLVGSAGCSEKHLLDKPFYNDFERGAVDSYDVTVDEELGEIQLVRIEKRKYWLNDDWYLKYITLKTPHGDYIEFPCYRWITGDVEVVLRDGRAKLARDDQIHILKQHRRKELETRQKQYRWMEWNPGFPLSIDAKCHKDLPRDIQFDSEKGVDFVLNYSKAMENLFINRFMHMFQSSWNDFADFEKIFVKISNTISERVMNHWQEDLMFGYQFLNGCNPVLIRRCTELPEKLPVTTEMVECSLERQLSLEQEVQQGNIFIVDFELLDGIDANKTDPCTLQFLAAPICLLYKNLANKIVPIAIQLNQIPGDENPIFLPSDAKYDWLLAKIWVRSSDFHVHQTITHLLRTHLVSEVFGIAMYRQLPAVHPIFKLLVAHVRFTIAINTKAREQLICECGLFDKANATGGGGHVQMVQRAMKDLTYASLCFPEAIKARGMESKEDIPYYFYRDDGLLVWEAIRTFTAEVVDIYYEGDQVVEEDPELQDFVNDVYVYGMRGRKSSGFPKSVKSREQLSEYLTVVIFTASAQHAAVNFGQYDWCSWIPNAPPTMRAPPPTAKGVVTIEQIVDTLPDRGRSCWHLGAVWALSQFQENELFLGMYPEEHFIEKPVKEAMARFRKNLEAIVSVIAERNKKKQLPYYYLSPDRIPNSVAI
Put plainly: Inhibition of human recombinant 5-LOX expressed in insect cells assessed as decrease in production of 5-HPETE and 5-HETE using arachidonic acid as substrate preincubated for 5 mins followed by substrate addition measured after 20 mins in dark by ferric ion oxidation-xylenol orange method.

Assay [2] has as its target T2, Polyunsaturated fatty acid 5-lipoxygenase (Homo sapiens) (UniProt P09917).
T2 sequence (whole entry): T1 sequence (P09917 whole entry)
In words: Inhibition of human recombinant 5-LOX expressed in insect cells assessed residual activity using arachidonic acid at 42 uM as substrate preincubated for 5 mins followed by substrate addition measured after 20 mins in dark by ferric ion oxidation-xylenol orange method relative to control.

For assay [3], the target named is T3, Polyunsaturated fatty acid lipoxygenase ALOX15B (Homo sapiens, UniProt O15296).
T3 sequence (O15296 whole entry): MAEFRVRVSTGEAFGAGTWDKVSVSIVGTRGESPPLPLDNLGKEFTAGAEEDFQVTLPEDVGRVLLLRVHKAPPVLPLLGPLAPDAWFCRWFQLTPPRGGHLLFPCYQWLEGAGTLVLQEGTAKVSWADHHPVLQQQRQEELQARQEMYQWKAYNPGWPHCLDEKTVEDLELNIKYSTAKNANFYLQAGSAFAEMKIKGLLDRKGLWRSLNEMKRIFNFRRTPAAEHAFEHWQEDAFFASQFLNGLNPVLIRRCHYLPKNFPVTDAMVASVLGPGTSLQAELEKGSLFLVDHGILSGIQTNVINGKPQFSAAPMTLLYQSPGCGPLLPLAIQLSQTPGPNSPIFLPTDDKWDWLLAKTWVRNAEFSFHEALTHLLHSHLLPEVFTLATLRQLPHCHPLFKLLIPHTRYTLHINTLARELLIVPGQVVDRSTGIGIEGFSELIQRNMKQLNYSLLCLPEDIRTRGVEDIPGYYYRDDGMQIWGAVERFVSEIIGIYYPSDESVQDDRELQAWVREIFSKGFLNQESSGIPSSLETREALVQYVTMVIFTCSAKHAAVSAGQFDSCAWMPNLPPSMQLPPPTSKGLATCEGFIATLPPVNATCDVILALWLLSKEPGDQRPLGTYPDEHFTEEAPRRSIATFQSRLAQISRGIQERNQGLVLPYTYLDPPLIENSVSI
In words: Inhibition of human recombinant N-terminal His-tagged 15-LOX2 expressed in Escherichia coli using arachidonic acid as substrate preincubated for 5 mins followed by substrate addition measured after 20 mins in dark by ferric ion oxidation-xylenol orange assay.

Assay [4] addresses T4, Polyunsaturated fatty acid lipoxygenase ALOX15B (Homo sapiens) (UniProt O15296).
T4 sequence (whole entry): T3 sequence (O15296 whole entry)
In words: Inhibition of human recombinant N-terminal His-tagged 15-LOX2 expressed in Escherichia coli assessed as residual activity at 42 uM using arachidonic acid as substrate preincubated for 5 mins followed by substrate addition measured after 20 mins in dark by ferric ion oxidation-xylenol orange assay relative to control.

The target of assay [5] is T5, Prostaglandin G/H synthase 2 (Homo sapiens, UniProt P35354).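 Also: recombinant enzyme produced in baculovirus-infected Sf21 cells, arachidonic acid substrate, PGE2 output quantified by LC-MS after 45 min, compounds preincubated 10 min beforehand, lower PGE2 means inhibition.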
T5 sequence (P35354 whole entry): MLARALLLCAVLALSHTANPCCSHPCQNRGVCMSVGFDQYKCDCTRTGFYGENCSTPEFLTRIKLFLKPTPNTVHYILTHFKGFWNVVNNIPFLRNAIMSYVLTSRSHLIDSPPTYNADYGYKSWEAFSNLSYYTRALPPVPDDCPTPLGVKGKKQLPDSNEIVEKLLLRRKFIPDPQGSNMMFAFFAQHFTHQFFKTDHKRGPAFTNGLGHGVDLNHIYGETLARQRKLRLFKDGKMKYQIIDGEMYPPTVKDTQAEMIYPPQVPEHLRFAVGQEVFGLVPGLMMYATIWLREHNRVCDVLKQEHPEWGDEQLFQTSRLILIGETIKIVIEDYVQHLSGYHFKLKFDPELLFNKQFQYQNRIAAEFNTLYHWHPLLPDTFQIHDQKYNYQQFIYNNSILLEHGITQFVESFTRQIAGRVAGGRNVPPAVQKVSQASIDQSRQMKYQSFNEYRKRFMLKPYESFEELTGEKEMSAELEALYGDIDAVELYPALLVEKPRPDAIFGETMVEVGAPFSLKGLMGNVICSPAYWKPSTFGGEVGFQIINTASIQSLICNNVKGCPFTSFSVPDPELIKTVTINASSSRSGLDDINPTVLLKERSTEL
Put plainly: biochemical. The assay is classed as cell-based, Sf21.
Description: Inhibition of human recombinant COX2 expressed in baculovirus infected sf21 cells assessed as decrease in PGE2 formation using arachidonic acid as substrate preincubated for 10 mins followed by substrate addition measured after 45 mins by LC-MS analysis

Each structure is given as a SMILES string.

Data on 15 compounds can be found in ChEMBL document CHEMBL4414666, “Structure-Activity Relationships of Pentacyclic Triterpenoids as Inhibitors of Cyclooxygenase and Lipoxygenase Enzymes” (J Nat Prod, 2019).

For orientation: IC50 means the midpoint of a concentration-inhibition curve.

On to `C[C@H]1[C@H](C)CC[C@]2(C(=O)O)CC[C@]3(C)C(=CC[C@@H]4[C@@]5(C)CC[C@H](O)C(C)(C)[C@@H]5CC[C@]43C)[C@H]12` [URSOLIC ACID], for which the IC50 in assay [1] (read-out: IC50), in assay [3] (read-out: IC50) and in assay [5] (read-out: IC50) was greater than 40 µM throughout. Further, the Activity in assay [2] turned out to be 64%; in assay [4], 63.6%.
Regarding `CC1(C)CC[C@]2(C)CC[C@]3(C)C(=CC[C@@H]4[C@@]5(C)CCC(=O)C(C)(C)[C@@H]5CC[C@]43C)[C@@H]2C1`, the IC50 result in assay [1], in assay [3] and in assay [5] (sf21) was “Not Active” in each case. Besides, the Activity in assay [2] and in assay [4] was 100% each time.
As to `CC(=O)O[C@@H]1CC[C@@]2(C)[C@@H](CC[C@]3(C)[C@@H]2CC=C2[C@@H]4[C@@H](C)[C@H](C)CC[C@]4(C)CC[C@]23C)[C@@]1(C)C(=O)O`, the IC50 is greater than 40 µM in assay [1] (read-out: IC50), 12.2 µM in assay [3] (read-out: IC50) and greater than 40 µM in assay [5] (read-out: IC50). Also, the Activity in assay [2] was 69.5%; in assay [4] it was 24.9%.
Regarding `CC(=O)O[C@@H]1CC[C@@]2(C)[C@@H](CC[C@]3(C)[C@@H]2CC=C2[C@@H]4CC(C)(C)CC[C@]4(C)CC[C@]23C)[C@@]1(C)C(=O)O`, the IC50 was greater than 40 µM in assay [1] (read-out: IC50), “Not Active” in assay [3] and greater than 40 µM in assay [5] (read-out: IC50). For the same compound, the Activity turned out to be 93.1% in assay [2] and 100% in assay [4].
Take `CC1(C)CC[C@]2(C(=O)O)CC[C@]3(C)C(=CC[C@@H]4[C@@]5(C)CC[C@H](O)C(C)(C)[C@@H]5CC[C@]43C)[C@@H]2C1` [OLEANOLIC_ACID]: the IC50 result in assay [1] and in assay [3] was “Not Active” in each case. In addition, the Activity in assay [2] and in assay [4] was 100% throughout.
As for `CC1(C)CC[C@]2(C)CC[C@]3(C)C(=CC[C@@H]4[C@@]5(C)CC[C@@H](O)[C@](C)(C(=O)O)[C@@H]5CC[C@]43C)[C@@H]2C1`, the Activity in assay [2] was found to be 48.7%; in assay [4], 100%. Further, the figures for the IC50 result in assay [3] and in assay [5] (read-out: IC50) were “Not Active” and greater than 40 µM, respectively.
`CC1(C)CC[C@]2(C(=O)O)CC[C@]3(C)C(=CC[C@@H]4[C@@]5(C)C[C@@H](O)[C@H](O)C(C)(C)[C@@H]5CC[C@]43C)[C@@H]2C1` [MASLINIC ACID]: the figures for the IC50 in assay [1] (read-out: IC50), in assay [3] and in assay [5] (read-out: IC50) were greater than 40 µM, “Not Active” and greater than 40 µM, respectively. The Activity in assay [2] was 62.9%; in assay [4], 100%.
With `C[C@H]1[C@H](C)CC[C@]2(C(=O)O)CC[C@]3(C)C(=CC[C@@H]4[C@@]5(C)C[C@@H](O)[C@H](O)C(C)(C)[C@@H]5CC[C@]43C)[C@H]12` [COROSOLIC ACID], the values for the IC50 in assay [1] (read-out: IC50), in assay [3] and in assay [5] (read-out: IC50) were greater than 40 µM, “Not Active” and greater than 40 µM, respectively. For the same compound, the Activity amounted to 66.7% in assay [2] and 100% in assay [4].
Take `CC1(C)CC[C@]2(C(=O)O)CC[C@]3(C)C(=CC[C@@H]4[C@@]5(C)C[C@@H](O)[C@H](O)[C@@](C)(CO)[C@@H]5CC[C@]43C)[C@@H]2C1` [ARJUNOLIC ACID]: the Activity in assay [2] came to 47.7%; in assay [4] it was 100%. Further, the IC50 entry in assay [3] was “Not Active”; in assay [5] (read-out: IC50) it was greater than 40 µM.
Turning to `C[C@H]1[C@H](C)CC[C@]2(C)CC[C@]3(C)C(=CC[C@@H]4[C@@]5(C)CC[C@@H](O)[C@](C)(C(=O)O)[C@@H]5CC[C@]43C)[C@H]12` [BOSWELLIC ACID], the IC50 was greater than 40 µM in assay [1] (read-out: IC50), “Not Active” in assay [3] and greater than 40 µM in assay [5] (read-out: IC50). Besides, the Activity in assay [2] worked out at 53.4%; in assay [4] it was 100%.
With `CC1(C)[C@@H](O)CC[C@]2(C)[C@H]3CC=C4[C@@H]5C[C@@](C)(C(=O)O)CC[C@]5(C)CC[C@@]4(C)[C@]3(C)CC[C@@H]12`, the Activity was determined as 49% in assay [2] and 100% in assay [4]. In addition, the half-maximal inhibitory concentration (IC50) entry in assay [3] was “Not Active”; in assay [5] (read-out: IC50) it was greater than 40 µM.
For the compound `C[C@H]1[C@H](C)CC[C@]2(C(=O)O)CC[C@]3(C)C(=CC[C@@H]4[C@@]5(C)C[C@@H](O)[C@H](O)[C@@](C)(CO)[C@@H]5CC[C@]43C)[C@H]12` [ASIATIC ACID], the 50% inhibitory concentration (IC50) in assay [1] (read-out: IC50) was greater than 40 µM; in assay [3] it was “Not Active”; in assay [5] (read-out: IC50) it was greater than 40 µM. Also, the results for the Activity in assay [2] and in assay [4] were 61.9% and 100%, respectively.
On to `C[C@H]1[C@H](C)CC[C@]2(C)CC[C@]3(C)C(=CC(=O)[C@@H]4[C@@]5(C)CC[C@@H](O)[C@](C)(C(=O)O)[C@@H]5CC[C@]43C)[C@H]12` [11-KETO BOSWELLIC ACID], for which the IC50 was 28.3 µM in assay [1] (read-out: IC50), “Not Active” in assay [3] and greater than 40 µM in assay [5] (read-out: IC50). Besides, the Activity in assay [2] came out at 31.9%; in assay [4] it was 100%.
For the compound `CC(=O)O[C@@H]1CC[C@@]2(C)[C@@H](CC[C@]3(C)[C@@H]2C(=O)C=C2[C@@H]4[C@@H](C)[C@H](C)CC[C@]4(C)CC[C@]23C)[C@@]1(C)C(=O)O` [AKBA], the IC50 is 35.6 µM in assay [1] (read-out: IC50), greater than 40 µM in assay [3] (read-out: IC50) and greater than 40 µM in assay [5] (read-out: IC50). The values for the Activity in assay [2] and in assay [4] were 41.2% and 81.7%, respectively.
As for `CC(Cc1ccc(O)c(O)c1)C(C)Cc1ccc(O)c(O)c1` (configuration not stated), the Activity in assay [4] was 31.4%.
